Laboratory results from patent US12509451B2, “Heteroaryl amide inhibitors of CD38” (NAPA THERAPEUTICS LTD., priority 2020, dated 2025).
pIC50: −log10 of the molar value.

How the values were obtained:
[1] = target: T1, CD38 NAD+ hydrolase activity in NH7-dCas9 cells (Jurkat clone) (Homo sapiens, UniProt P28907); experiment: Fluorescence-based NAD+ hydrolase activity assay with human T cell line NH7-dCas9 cells-Jurkat clone (Assay 1); conditions: read-out: Assay 1 Arithmetic mean IC50
T1 construct: The assay utilized CD38 expressing NH7-dCas9 cells (Jurkat clone); host or cells: NH7-dCas9 cells (Jurkat clone)
T1 sequence (P28907 1-300): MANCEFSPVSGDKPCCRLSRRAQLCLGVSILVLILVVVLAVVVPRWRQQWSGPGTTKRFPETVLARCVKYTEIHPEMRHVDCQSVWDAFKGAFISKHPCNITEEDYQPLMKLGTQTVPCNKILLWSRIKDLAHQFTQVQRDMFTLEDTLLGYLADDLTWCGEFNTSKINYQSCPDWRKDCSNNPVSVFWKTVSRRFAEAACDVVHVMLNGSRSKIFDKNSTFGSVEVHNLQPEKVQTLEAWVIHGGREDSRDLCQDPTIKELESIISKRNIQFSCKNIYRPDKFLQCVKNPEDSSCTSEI
Experimental: For the modified assay, the performance validation criteria of the assay as a High Throughput Screening (HTS): Z-factor within the plate was greater than 0.89 (optimal HTS z-factor >0.5) and the Intra-plate, inter-plate and day to day variability (CV) was less than 20%.
NAD+ hydrolase activity of a human T cell line treated with test compounds was measured using a fluorescence-based assay. NH7-dCas9 cells (Jurkat clone) were provided by the Weissman Lab (UCSF 1700 4th St., Byers Hall, Room 403B, San Francisco, CA 94158-2330). Briefly, cells were centrifuged, resuspended in 44 μl PBS/10^6 cells and plated in a 96 well black plate (CORNING) at a density of 1×10^6 per well.
(§1) Each test compound was received in a powder state and dissolved in DMSO as a 25 mM stock solution. Each test compound was serially diluted in order to generate a dose-response curve. The dilution series of each test compound in DMSO was prepared at 50 times the concentrations to be assayed. Each test compound was diluted to generate a 5-fold dilution series of 8 concentrations from 20 μM to 0.256 nM in order to assay 8 final concentrations ranging from 400 nM to 25.6 pM. One μl of the 50× concentration compound series was added to each well of the plate containing 1×10^6 cells in PBS.
Each plate had the following intra plate controls: 3 wells containing cells treated with vehicle only (DMSO), 3 wells of cells treated with the reference compound 78c at a final concentration of 50 nM and 2 wells containing only PBS (used as a background value).
(§2) The reaction was started by adding nicotinamide 1,N^6-etheno-adenine dinucleotide (Sigma Aldrich) to reach a final concentration of 80 µM. The samples were excited at 321-15 nm, and the emission of fluorescence was measured at 410-20 nm at 37° C. every minute for 1 hr in a Clariostar® microplate reader (BMG LABTECH). NAD+ hydrolase activity was calculated as the slope of the linear portion of the fluorescence-time curve using the MARS data analysis software (BMG LABTECH). The data were uploaded in the Collaborative Drug Design (CDD) Software and for each compound the IC50 was calculated by the software. Each compound was tested in 3 independent experiments on 3 separate days to establish the reproducibility of the results. For each plate, the z-factor was also calculated as a plate quality using the CDD software.

[2] = target: T2, recombinant mouse CD38 Protein (Mus musculus, UniProt P56528); experiment: Fluorescence-based NAD+ hydrolase activity assay with mouse recombinant CD38 protein (Assay 5); type: biochemical; conditions: read-out: Assay 5 Arithmetic mean IC50
T2 construct: purchased R&D System
T2 sequence (P56528 1-304): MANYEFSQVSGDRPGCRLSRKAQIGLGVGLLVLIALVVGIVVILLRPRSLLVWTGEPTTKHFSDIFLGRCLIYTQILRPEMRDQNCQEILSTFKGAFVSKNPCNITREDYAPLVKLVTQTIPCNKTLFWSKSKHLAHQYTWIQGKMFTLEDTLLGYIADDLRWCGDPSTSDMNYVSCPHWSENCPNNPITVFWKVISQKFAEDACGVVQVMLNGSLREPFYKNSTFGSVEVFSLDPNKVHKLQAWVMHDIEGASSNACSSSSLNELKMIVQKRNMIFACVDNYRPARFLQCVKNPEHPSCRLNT
Experimental: This protocol was modified from the following references: Muller et al. (1983); Schultz et al. (2018); Matalonga et al. (2017); and de Oliveira et al. (2018), supra.
NAD+ hydrolase activity of the mouse recombinant CD38 protein treated with test compounds was measured using a fluorescence-based assay. Briefly, recombinant mouse CD38 Protein (R&D System) was resuspended in 44 μl/well of Sucrose-Tris Buffer (Sucrose 0.25 M, Tris pH 7.4 40 mM) and plated in a 96 well black plate (CORNING) at a density of 2.5 ng/well.
as §1, with “2.5 ng of protein” for “1×10^6 cells”, “Sucrose-Tris buffer.” for “PBS.”
Each plate had the following intra plate controls: 3 wells containing cells treated with vehicle only (DMSO), 3 wells of cells treated with the reference compounds 78c at a final concentration of 50 nM and 2 wells containing only Sucrose-Tris buffer (used as a background value).
as §2, with “started” for “started by”, “nm” for “nm,”, “Clariostar Microplate®” for “Clariostar® microplate”

| Structure (SMILES) | pIC50 [1] | pIC50 [2] |
| --- | --- | --- |
| CNC(=O)c1ccc(NC(=O)c2cccc(-n3ccnc3)n2)cn1 [Compound 2] | > 9.00 | > 9.00 |
| NC(=O)c1ccc(NC(=O)c2cccc(-n3ccnc3)n2)cn1 [Compound 3] | > 9.00 | 7.30 to 9.00 |
| Cc1cc(NC(=O)c2cccc(-n3ccnc3)n2)cc(C)n1 [Compound 7] | > 9.00 | > 9.00 |
| O=C(Nc1ccnc(F)c1)c1cccc(-n2ccnc2)n1 [Compound 8] | > 9.00 | 7.30 to 9.00 |
| O=C(Nc1ccc(C(F)(F)F)nc1)c1cccc(-n2ccnc2)n1 [Compound 9] | 7.30 to 9.00 | 7.30 to 9.00 |
| Cc1cc(NC(=O)c2cccc(-n3ccnc3)n2)ccn1 [Compound 11] | 7.30 to 9.00 | 7.30 to 9.00 |
| COc1cc(NC(=O)c2cccc(-n3ccnc3)n2)ccn1 [Compound 12] | 7.30 to 9.00 | 7.30 to 9.00 |
| O=C(Nc1ccncc1)c1cccc(-n2ccnc2)n1 [Compound 13] | 7.30 to 9.00 | 7.30 to 9.00 |
| Cc1ccc(NC(=O)c2cccc(-n3ccnc3)n2)cn1 [Compound 14] | 7.30 to 9.00 | 7.30 to 9.00 |
| CC(=O)N(C)c1ccc(NC(=O)c2cccc(-n3ccnc3)n2)cn1 [Compound 15] | 7.30 to 9.00 | 7.30 to 9.00 |
| CC(=O)Nc1ccc(NC(=O)c2cccc(-n3ccnc3)n2)cn1 [Compound 16] | 7.30 to 9.00 | 7.30 to 9.00 |
| COc1ccc(NC(=O)c2cccc(-n3ccnc3)n2)cn1 [Compound 18] | 7.30 to 9.00 | 7.30 to 9.00 |
| O=C(Nc1cccnc1)c1cccc(-n2ccnc2)n1 [Compound 20] | 7.30 to 9.00 | 7.30 to 9.00 |
| O=C(Nc1ccc(F)nc1)c1cccc(-n2ccnc2)n1 [Compound 22] | 7.30 to 9.00 | 7.30 to 9.00 |
| O=C(Nc1ccncn1)c1cccc(-n2ccnc2)n1 [Compound 24] | 7.30 to 9.00 | 7.30 to 9.00 |
| COC(=O)c1ccc(NC(=O)c2cccc(-n3ccnc3)n2)cn1 [Compound 27] | 7.30 to 9.00 | 7.30 to 9.00 |
| O=C(Nc1ccnc(C(F)(F)F)c1)c1cccc(-n2ccnc2)n1 [Compound 28] | > 9.00 | 7.30 to 9.00 |
| O=C(Nc1ccnc(C(F)(F)F)c1)c1cc(OCc2ccccc2)cc(-n2ccnc2)n1 [Compound 29, 4-(benzyloxy)-6-(1H-imidazol-1-yl)-N-[2-(trifluoromethyl)pyridin-4-yl]pyridine-2-carboxamide] | > 9.00 | > 9.00 |

| Structure (SMILES) | pIC50 [1] | pIC50 [2] |
| --- | --- | --- |
| O=C(Nc1ccnc(C(F)(F)F)c1)c1cc(OCC2CCOCC2)cc(-n2ccnc2)n1 [Compound 30, 6-(1H-imidazol-1-yl)-4-((tetrahydro-2H-pyran-4-yl)methoxy)-N-(2-(trifluoromethyl)pyridin-4-yl)picolinamide] | > 9.00 | > 9.00 |
| COCCOc1cc(C(=O)Nc2ccnc(C(F)(F)F)c2)nc(-n2ccnc2)c1 [Compound 31, 6-(1H-imidazol-1-yl)-4-(2-methoxyethoxy)-N-(2-(trifluoromethyl)pyridin-4-yl)picolinamide] | > 9.00 | > 9.00 |
| O=C(Nc1ccnc(C(F)(F)F)c1)c1cc(OC2CC2)cc(-n2ccnc2)n1 [Compound 32, 4-cyclopropoxy-6-(1H-imidazol-1-yl)-N-(2-(trifluoromethyl)pyridin-4-yl)picolinamide] | > 9.00 | 6.00 to 7.29 |
| CN(C)CCOc1cc(C(=O)Nc2ccnc(C(F)(F)F)c2)nc(-n2ccnc2)c1 [Compound 33] | > 9.00 | > 9.00 |
| CC1(Oc2cc(C(=O)Nc3ccnc(C(F)(F)F)c3)nc(-n3ccnc3)c2)COC1 [Compound 34, 6-(1H-imidazol-1-yl)-4-((3-methyloxetan-3-yl)oxy)-N-(2-(trifluoromethyl)pyridin-4-yl)picolinamide] | – | > 9.00 |
| COc1cc(C(=O)Nc2ccnc(C(F)(F)F)c2)nc(-n2ccnc2)c1 [Compound 35, 6-(1H-imidazol-1-yl)-4-methoxy-N-(2-(trifluoromethyl)pyridin-4-yl)picolinamide] | > 9.00 | > 9.00 |
| COc1cc(C(=O)Nc2cccnc2)nc(-n2ccnc2)c1 [Compound 36] | 7.30 to 9.00 | 7.30 to 9.00 |
| COc1cc(C(=O)Nc2ccnc(C(F)(F)F)c2)nc(-n2ccnc2)n1 [Compound 37, 2-(1H-imidazol-1-yl)-6-methoxy-N-(2-(trifluoromethyl)pyridin-4-yl)pyrimidine-4-carboxamide] | > 9.00 | > 9.00 |
| CCOc1cc(C(=O)Nc2ccnc(C(F)(F)F)c2)nc(-n2ccnc2)n1 [Compound 38] | > 9.00 | > 9.00 |
| COCCOc1cc(C(=O)Nc2ccnc(C(F)(F)F)c2)nc(-n2ccnc2)n1 [Compound 39, 2-(1H-imidazol-1-yl)-6-(2-methoxyethoxy)-N-(2-(trifluoromethyl)pyridin-4-yl)pyrimidine-4-carboxamide] | > 9.00 | > 9.00 |
| O=C(Nc1ccnc(C(F)(F)F)c1)c1cc(OC2CC2)nc(-n2ccnc2)n1 [Compound 40] | – | > 9.00 |
| Cn1cncc1-c1cccc(C(=O)Nc2cccnc2)n1 [Compound 42, 6-(1-methyl-1H-imidazol-5-yl)-N-(pyridin-3-yl)picolinamide] | 7.30 to 9.00 | 7.30 to 9.00 |
| Cn1cncc1-c1cccc(C(=O)Nc2ccc(C(F)(F)F)nc2)n1 [Compound 43] | > 9.00 | 7.30 to 9.00 |
| Cc1cc(C(=O)Nc2ccncc2)nc(-c2nccn2C)c1 [Compound 45] | > 9.00 | > 9.00 |
| Cn1ccnc1-c1cccc(C(=O)Nc2ccc(C(F)(F)F)nc2)n1 [Compound 47] | > 9.00 | 7.30 to 9.00 |
| Cn1ccnc1-c1cccc(C(=O)Nc2cccnc2)n1 [Compound 48] | 7.30 to 9.00 | 7.30 to 9.00 |
| O=C(Nc1ccnc(C(F)(F)F)c1)c1cc(C2CC2)nc(-n2ccnc2)n1 [Compound 51, 6-cyclopropyl-2-(1H-imidazol-1-yl)-N-(2-(trifluoromethyl)pyridin-4-yl)pyrimidine-4-carboxamide] | – | > 9.00 |
